Source: publication PMC11845477, “Exploring the principles behind antibiotics with limited resistance” (Nature Communications, 2025)

Tested on: P. aeruginosa ATCC BAA-3107 (SEN) and P. aeruginosa LESB58 (MDR)
Experiment: Adaptive laboratory evolution (ALE), relative MIC of evolved lines
Format: cell-based, Pseudomonas aeruginosa
From the text: Using the same set of bacterial strains, we initiated adaptive laboratory evolution with the aim to maximize the level of antibiotic resistance in the populations achieved during a longer, but fixed time period.
An established protocol for adaptive laboratory evolution[46],[73] was followed to propagate populations with the highest resistance levels. Starting with an antibiotic concentration that caused approximately 50% growth inhibition, ten parallel populations for each antibiotic-ancestor strain combination were grown for 72 hours at 37 °C with continuous shaking (300 RPM). MHB broth medium was used unless stated otherwise. After each incubation, 20 µl of each culture was transferred to four new wells containing fresh medium with increasing antibiotic concentrations (0.5×, 1×, 1.5×, and 2.5× the previous concentration) in a chessboard layout to monitor potential cross-contamination. Growth was monitored by measuring OD600 using a Biotek Synergy 2 microplate reader, and only populations grown in the highest drug concentration with an OD600 > 0.2 were transferred further.
A robotic liquid handling system was used to automatically prepare a 11 to 16-step serial dilution in 384-well microtiter plates (Greiner). A final concentration of 5 × 10^5 bacterial cells per mL were inoculated into each well containing 60 µL MHB medium. Bacterial cultures were incubated at 37 °C with continuous shaking (Infors shaker, 900 rpm with 3 mm throw) for 18 hours (2 replicates from each). Cell growth was monitored by measuring the optical density (OD600 values, using Biotek Synergy microplate reader). MIC was defined as the antibiotic concentration of complete growth inhibition (i.e., OD600 < 0.05). Relative MIC was calculated as follows:1 relativeMIC=MICevolved/MICancestor […]
Supplementary Figure 4. Resistance levels following adaptive laboratory evolution across bacterial strains. The level of resistance was measured as the fold change in relative MIC between evolved and ancestral strains after ~60 days of adaptive laboratory evolution. Data are grouped by bacterial strain (A. baumannii (AB), E. coli (EC), K. pneumoniae (KP), and P. aeruginosa (PA)) and categorized as either multidrug-resistant (MDR) or sensitive (SEN). Each data point represents a laboratory evolved line, and boxplots show the median, first and third quartiles, with whiskers indicating the 5th and 95th percentiles.
Statistical analysis was performed using two-sided Dunn’s post-hoc test with Benjamini-Hochberg correction for multiple comparisons (****/ ***/ **/ * indicates p < 0.0001/ 0.001/ 0.01/ 0.05). For detailed information on antibiotic and bacterial species, see Supplementary Table 1. For mode of action groups, refer to Table 1. Source data are provided as a Source Data file.

[1] = PA-SEN (Pseudomonas aeruginosa ATCC BAA 3107), evolved line 2 adapted to the named antibiotic
[2] = PA-SEN (Pseudomonas aeruginosa ATCC BAA 3107), evolved line 10 adapted to the named antibiotic
[3] = PA-SEN, Pseudomonas aeruginosa ATCC BAA 3107, evolved line 1
[4] = PA-SEN, Pseudomonas aeruginosa ATCC BAA 3107, evolved line 2
[5] = PA-SEN, Pseudomonas aeruginosa ATCC BAA 3107, evolved line 4
[6] = PA-SEN, Pseudomonas aeruginosa ATCC BAA 3107, evolved line 6
[7] = PA-SEN, Pseudomonas aeruginosa ATCC BAA 3107, evolved line 8
[8] = PA-SEN, Pseudomonas aeruginosa ATCC BAA 3107, evolved line 9
[9] = PA-SEN, Pseudomonas aeruginosa ATCC BAA 3107, evolved line 10

Q: With `CNC(C)C1CCC(N)C(OC2C(N)CC(N)C(OC3OCC(C)(O)C(NC)C3O)C2O)O1` (centres unmarked) [Gentamicin] as the compound, how does the “Relative MIC (log10)” value (PA-SEN (Pseudomonas aeruginosa ATCC BAA 3107), evolved line 1 adapted to the named antibiotic) read?
A: 2.107

Q: And the “Relative MIC (log10)” value [1]?
A: 1.806

Q: And the “Relative MIC (log10)” value (PA-SEN (Pseudomonas aeruginosa ATCC BAA 3107), evolved line 6 adapted to the named antibiotic)?
A: 1.806

Q: And the “Relative MIC (log10)” value (PA-SEN (Pseudomonas aeruginosa ATCC BAA 3107), evolved line 9 adapted to the named antibiotic)?
A: 2.107

Q: What about the “Relative MIC (log10)” value [2] of the same compound?
A: 2.408

Q: And the MIC of evolved line [3]?
A: 128 µg/mL

Q: What about the “Relative MIC” value [3] of the same compound?
A: 128

Q: What about the “Relative MIC” value (PA-SEN, Pseudomonas aeruginosa ATCC BAA 3107, evolved line 1 versus ancestor) of the same compound?
A: 128

Q: And the MIC of evolved line [4]?
A: 64 µg/mL

Q: What about the “Relative MIC” value [4] of the same compound?
A: 64

Q: And the “Relative MIC” value (PA-SEN, Pseudomonas aeruginosa ATCC BAA 3107, evolved line 2 versus ancestor)?
A: 64

Q: What about the MIC of evolved line [5] of the same compound?
A: 128 µg/mL

Q: What about the “Relative MIC” value [5] of the same compound?
A: 128

Q: What about the “Relative MIC” value (PA-SEN, Pseudomonas aeruginosa ATCC BAA 3107, evolved line 4 versus ancestor) of the same compound?
A: 128

Q: And the MIC of evolved line [6]?
A: 64 µg/mL

Q: What about the “Relative MIC” value [6] of the same compound?
A: 64

Q: What about the “Relative MIC” value (PA-SEN, Pseudomonas aeruginosa ATCC BAA 3107, evolved line 6 versus ancestor) of the same compound?
A: 64

Q: What about the MIC of evolved line [7] of the same compound?
A: 256 µg/mL

Q: What about the “Relative MIC” value [7] of the same compound?
A: 256

Q: And the “Relative MIC” value (PA-SEN, Pseudomonas aeruginosa ATCC BAA 3107, evolved line 8 versus ancestor)?
A: 256

Q: And the MIC of evolved line [8]?
A: 128 µg/mL

Q: And the “Relative MIC” value [8]?
A: 128

Q: What about the “Relative MIC” value (PA-SEN, Pseudomonas aeruginosa ATCC BAA 3107, evolved line 9 versus ancestor) of the same compound?
A: 128

Q: And the MIC of evolved line [9]?
A: 256 µg/mL

Q: What about the “Relative MIC” value [9] of the same compound?
A: 256

Q: And the “Relative MIC” value (PA-SEN, Pseudomonas aeruginosa ATCC BAA 3107, evolved line 10 versus ancestor)?
A: 256

Q: What does the source list for `Nc1nc(-n2cc(C(=O)O)c(=O)c3cc(F)c(N4CC(O)C4)c(Cl)c32)c(F)cc1F` [Delafloxacin]?
A: Relative MIC (PA-MDR (LESB 58), evolved line 1, MIC of evolved line / MIC of ancestor): 64; Relative MIC (PA-MDR (LESB 58), evolved line 2, MIC of evolved line / MIC of ancestor): 64; Relative MIC (PA-MDR (LESB 58), evolved line 3, MIC of evolved line / MIC of ancestor): 64; MIC of evolved line (PA-MDR (LESB 58), evolved line 4): 128 µg/mL; Relative MIC (PA-MDR (LESB 58), evolved line 4, MIC of evolved line / MIC of ancestor): 64; MIC of evolved line (PA-MDR (LESB 58), evolved line 5): 128 µg/mL; Relative MIC (PA-MDR (LESB 58), evolved line 5, MIC of evolved line / MIC of ancestor): 64; MIC of evolved line (PA-MDR (LESB 58), evolved line 6): 64 µg/mL; Relative MIC (PA-MDR (LESB 58), evolved line 6, MIC of evolved line / MIC of ancestor): 32; MIC of evolved line (PA-MDR (LESB 58), evolved line 7): 128 µg/mL; Relative MIC (PA-MDR (LESB 58), evolved line 7, MIC of evolved line / MIC of ancestor): 64; MIC of evolved line (PA-MDR (LESB 58), evolved line 8): 128 µg/mL; Relative MIC (PA-MDR (LESB 58), evolved line 8, MIC of evolved line / MIC of ancestor): 64; MIC of evolved line (PA-MDR (LESB 58), evolved line 9): 128 µg/mL; Relative MIC (PA-MDR (LESB 58), evolved line 9, MIC of evolved line / MIC of ancestor): 64; MIC of evolved line (PA-MDR (LESB 58), evolved line 10): 64 µg/mL; Relative MIC (PA-MDR (LESB 58), evolved line 10, MIC of evolved line / MIC of ancestor): 32; Relative MIC (log10) (PA-MDR (Pseudomonas aeruginosa LESB 58), evolved line 2 adapted to the named antibiotic): 1.806; Relative MIC (log10) (PA-MDR (Pseudomonas aeruginosa LESB 58), evolved line 4 adapted to the named antibiotic): 1.806; Relative MIC (log10) (PA-MDR (Pseudomonas aeruginosa LESB 58), evolved line 6 adapted to the named antibiotic): 1.505; Relative MIC (log10) (PA-MDR (Pseudomonas aeruginosa LESB 58), evolved line 7 adapted to the named antibiotic): 1.806; Relative MIC (log10) (PA-MDR (Pseudomonas aeruginosa LESB 58), evolved line 9 adapted to the named antibiotic): 1.806; MIC of evolved line (PA-MDR LESB 58, evolved line 1): 128 µg/mL; MIC of evolved line (PA-MDR LESB 58, evolved line 2): 128 µg/mL; MIC of evolved line (PA-MDR LESB 58, evolved line 3): 128 µg/mL; MIC of evolved line (PA-SEN (ATCC BAA 3107), evolved line 2): 32 µg/mL; Relative MIC (PA-SEN (ATCC BAA 3107), evolved line 2, MIC of evolved line / MIC of ancestor): 2048; MIC of evolved line (PA-SEN (ATCC BAA 3107), evolved line 3): 64 µg/mL; Relative MIC (PA-SEN (ATCC BAA 3107), evolved line 3, MIC of evolved line / MIC of ancestor): 4096; MIC of evolved line (PA-SEN (ATCC BAA 3107), evolved line 4): 32 µg/mL; Relative MIC (PA-SEN (ATCC BAA 3107), evolved line 4, MIC of evolved line / MIC of ancestor): 2048; MIC of evolved line (PA-SEN (ATCC BAA 3107), evolved line 5): 32 µg/mL; Relative MIC (PA-SEN (ATCC BAA 3107), evolved line 5, MIC of evolved line / MIC of ancestor): 2048; MIC of evolved line (PA-SEN (ATCC BAA 3107), evolved line 6): 64 µg/mL; Relative MIC (PA-SEN (ATCC BAA 3107), evolved line 6, MIC of evolved line / MIC of ancestor): 4096; MIC of evolved line (PA-SEN (ATCC BAA 3107), evolved line 7): 32 µg/mL; Relative MIC (PA-SEN (ATCC BAA 3107), evolved line 7, MIC of evolved line / MIC of ancestor): 2048; MIC of evolved line (PA-SEN (ATCC BAA 3107), evolved line 8): 32 µg/mL; Relative MIC (PA-SEN (ATCC BAA 3107), evolved line 8, MIC of evolved line / MIC of ancestor): 2048; MIC of evolved line (PA-SEN (ATCC BAA 3107), evolved line 9): 32 µg/mL; Relative MIC (PA-SEN (ATCC BAA 3107), evolved line 9, MIC of evolved line / MIC of ancestor): 2048; MIC of evolved line (PA-SEN (ATCC BAA 3107), evolved line 10): 32 µg/mL; Relative MIC (PA-SEN (ATCC BAA 3107), evolved line 10, MIC of evolved line / MIC of ancestor): 2048; Relative MIC (log10) [1]: 3.311; Relative MIC (log10) (PA-SEN (Pseudomonas aeruginosa ATCC BAA 3107), evolved line 7 adapted to the named antibiotic): 3.311; Relative MIC (log10) (PA-SEN (Pseudomonas aeruginosa ATCC BAA 3107), evolved line 8 adapted to the named antibiotic): 3.311; Relative MIC (log10) [2]: 3.311; Relative MIC (Pseudomonas aeruginosa ATCC BAA 3107 (PA-SEN), evolved line 2): 2048; Relative MIC (Pseudomonas aeruginosa ATCC BAA 3107 (PA-SEN), evolved line 3): 4096; Relative MIC (Pseudomonas aeruginosa ATCC BAA 3107 (PA-SEN), evolved line 4): 2048; Relative MIC (Pseudomonas aeruginosa ATCC BAA 3107 (PA-SEN), evolved line 5): 2048; Relative MIC (Pseudomonas aeruginosa ATCC BAA 3107 (PA-SEN), evolved line 6): 4096; Relative MIC (Pseudomonas aeruginosa ATCC BAA 3107 (PA-SEN), evolved line 7): 2048; Relative MIC (Pseudomonas aeruginosa ATCC BAA 3107 (PA-SEN), evolved line 8): 2048; Relative MIC (Pseudomonas aeruginosa ATCC BAA 3107 (PA-SEN), evolved line 9): 2048; Relative MIC (Pseudomonas aeruginosa ATCC BAA 3107 (PA-SEN), evolved line 10): 2048; Relative MIC (Pseudomonas aeruginosa LESB 58 (PA-MDR), evolved line 1): 64; Relative MIC (Pseudomonas aeruginosa LESB 58 (PA-MDR), evolved line 2): 64; Relative MIC (Pseudomonas aeruginosa LESB 58 (PA-MDR), evolved line 3): 64; Relative MIC (Pseudomonas aeruginosa LESB 58 (PA-MDR), evolved line 4): 64; Relative MIC (Pseudomonas aeruginosa LESB 58 (PA-MDR), evolved line 5): 64; Relative MIC (Pseudomonas aeruginosa LESB 58 (PA-MDR), evolved line 6): 32; Relative MIC (Pseudomonas aeruginosa LESB 58 (PA-MDR), evolved line 7): 64; Relative MIC (Pseudomonas aeruginosa LESB 58 (PA-MDR), evolved line 8): 64; Relative MIC (Pseudomonas aeruginosa LESB 58 (PA-MDR), evolved line 9): 64; Relative MIC (Pseudomonas aeruginosa LESB 58 (PA-MDR), evolved line 10): 32
